What was measured:
Format in all cases: in vivo
[1] = system: redroot pigweed (Amaranthus retroflexus, AMARE); experiment: Pre-emerge test, greenhouse herbicide activity screening; settings: pre-emerge, rated 14 days after application, 0 = no damage, 100 = complete death
Procedure, shortened: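 Sandy loam pots; pre-emerge: sown 1 d pre-spray, surface-watered after, then bottom-watered. Post-emerge: sown 8–21 d before, 2–3 leaf stage, + 0.25% v/v NIS, bottom-watered. Acetone, 187 l/ha track spray, 15–1000 g ai/ha. 0–100 injury score, day 14.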

[2] = system: barnyardgrass (Echinochloa crus-galli, ECHCG); experiment: as above; settings: pre-emerge, rated 14 days after application, 0 = no damage, 100 = complete death
Procedure, shortened: (§1)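 Plants grown in 10 cm pots of sandy loam mix received acetone-dissolved compounds through a moving flat-fan nozzle. Doses ranged from 15 to 1000 g ai/ha. Pre-emerge pots were seeded one day earlier, post-emerge pots 8–21 days earlier. Fourteen days on, each pot was graded 0–100 for damage.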

[3] = system: green foxtail (Setaria viridis, SETVI); experiment: as above; settings: pre-emerge, rated 14 days after application, 0 = no damage, 100 = complete death
Procedure, shortened: as §1

[4] = system: ivyleaf morningglory (Ipomoea hederacea, IPOHE); experiment: as above; settings: pre-emerge, rated 14 days after application, 0 = no damage, 100 = complete death
Procedure, shortened: as §1

[5] = system: johnsongrass (Sorghum halepense, SORHA); experiment: as above; settings: pre-emerge, rated 14 days after application, 0 = no damage, 100 = complete death
Procedure, shortened: as §1

[6] = system: lambsquarters (Chenopodium album, CHEAL); experiment: as above; settings: pre-emerge, rated 14 days after application, 0 = no damage, 100 = complete death
Procedure, shortened: as §1

[7] = system: large crabgrass (Digitaria sanguinalis, DIGSA); experiment: as above; settings: pre-emerge, rated 14 days after application, 0 = no damage, 100 = complete death
Procedure, shortened: as §1

[8] = system: sicklepod (Cassia obtusifolia, CASOB); experiment: as above; settings: pre-emerge, rated 14 days after application, 0 = no damage, 100 = complete death
Procedure, shortened: as §1

[9] = system: velvetleaf (Abutilon theophrasti, ABUTH); experiment: as above; settings: pre-emerge, rated 14 days after application, 0 = no damage, 100 = complete death
Procedure, shortened: as §1

[10] = system: field corn (Zea mays L., var. Dekalb 535, CORN); experiment: Pre-emerge test, crop safety; settings: pre-emerge, rated 14 days after application, 0 = no damage, 100 = complete death
Procedure, shortened: (§2)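 Herbicidal damage is scored 0 (none) to 100 (complete plant death) two weeks after a simulated field spray. Rates span 15–1000 g ai/ha, delivered in acetone at 187 l/ha. For post-emergence treatments, plants have 2–3 leaves and the spray carries 0.25% v/v non-ionic surfactant.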

[11] = system: upland rice (Oryza sp., var. Tebonnet, RICE); experiment: Pre-emerge test, crop safety; settings: pre-emerge, rated 14 days after application, 0 = no damage, 100 = complete death
Procedure, shortened: as §2

[12] = system: barnyardgrass (Echinochloa crus-galli, ECHCG); experiment: Post-emerge test, greenhouse herbicide activity screening; settings: phytotoxicity rating 0-100 (0 no damage, 100 complete death), 14 days after application
Procedure, shortened: as §2

[13] = system: common ragweed (Ambrosia artemisizfolia L., AMBEL); experiment: as above; settings: phytotoxicity rating 0-100 (0 no damage, 100 complete death), 14 days after application
Procedure, shortened: as §2

[14] = system: green foxtail (Setaria viridis, SETVI); experiment: as above; settings: phytotoxicity rating 0-100 (0 no damage, 100 complete death), 14 days after application
Procedure, shortened: as §2

[15] = system: ivyleaf morningglory (Ipomoea hederacea, IPOHE); experiment: as above; settings: phytotoxicity rating 0-100 (0 no damage, 100 complete death), 14 days after application
Procedure, shortened: as §2

[16] = system: johnsongrass (Sorghum halepense, SORHA); experiment: as above; settings: phytotoxicity rating 0-100 (0 no damage, 100 complete death), 14 days after application
Procedure, shortened: as §2

[17] = system: lambsquarters (Chenopodium album, CHEAL); experiment: as above; settings: phytotoxicity rating 0-100 (0 no damage, 100 complete death), 14 days after application
Procedure, shortened: as §2

[18] = system: large crabgrass (Digitaria sanguinalis, DIGSA); experiment: as above; settings: phytotoxicity rating 0-100 (0 no damage, 100 complete death), 14 days after application
Procedure, shortened: as §2

[19] = system: redroot pigweed (Amaranthus retroflexus, AMARE); experiment: as above; settings: phytotoxicity rating 0-100 (0 no damage, 100 complete death), 14 days after application
Procedure, shortened: as §2

[20] = system: sicklepod (Cassia obtusifolia, CASOB); experiment: as above; settings: phytotoxicity rating 0-100 (0 no damage, 100 complete death), 14 days after application
Procedure, shortened: as §2

[21] = system: velvetleaf (Abutilon theophrasti, ABUTH); experiment: as above; settings: phytotoxicity rating 0-100 (0 no damage, 100 complete death), 14 days after application
Procedure, shortened: as §2

[22] = system: field corn (Zea mays L., var. Dekalb 535, CORN); experiment: Post-emerge test, crop safety; settings: phytotoxicity rating 0-100 (0 no damage, 100 complete death), 14 days after application
Procedure, shortened: (§3)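 Each test used a mechanized track sprayer delivering 187 l/ha of acetone solution at 15–1000 g ai/ha. Post-emerge foliage at 2–3 leaves was treated with added 0.25% v/v non-ionic surfactant and bottom-watered only. Injury was assessed on day 14, where 100 means total kill.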

[23] = system: upland rice (Oryza sp., var. Tebonnet, RICE); experiment: Post-emerge test, crop safety; settings: phytotoxicity rating 0-100 (0 no damage, 100 complete death), 14 days after application
Procedure, shortened: as §3

CC(C)Oc1c(Cl)cc(F)c(-n2c(=O)cc(C(F)(F)F)n(C)c2=O)c1N [Compound 1-63]
Pre-emerge Herbicidal Activity AMARE (phytotoxicity rating, scale 0-100) ([1]; 63 g ai/ha): 100
Pre-emerge Herbicidal Activity AMARE (phytotoxicity rating, scale 0-100) ([1]; 250 g ai/ha): 100
Pre-emerge Herbicidal Activity ECHCG (phytotoxicity rating, scale 0-100) ([2]; 63 g ai/ha): 40
Pre-emerge Herbicidal Activity ECHCG (phytotoxicity rating, scale 0-100) ([2]; 250 g ai/ha): 100
Pre-emerge Herbicidal Activity SETVI (phytotoxicity rating, scale 0-100) ([3]; 63 g ai/ha): 95
Pre-emerge Herbicidal Activity SETVI (phytotoxicity rating, scale 0-100) ([3]; 250 g ai/ha): 100
Pre-emerge Herbicidal Activity IPOHE (phytotoxicity rating, scale 0-100) ([4]; 63 g ai/ha): 20
Pre-emerge Herbicidal Activity IPOHE (phytotoxicity rating, scale 0-100) ([4]; 250 g ai/ha): 95
Pre-emerge Herbicidal Activity SORHA (phytotoxicity rating, scale 0-100) ([5]; 63 g ai/ha): 50
Pre-emerge Herbicidal Activity SORHA (phytotoxicity rating, scale 0-100) ([5]; 250 g ai/ha): 99
Pre-emerge Herbicidal Activity CHEAL (phytotoxicity rating, scale 0-100) ([6]; 63 g ai/ha): 100
Pre-emerge Herbicidal Activity CHEAL (phytotoxicity rating, scale 0-100) ([6]; 250 g ai/ha): 100
Pre-emerge Herbicidal Activity DIGSA (phytotoxicity rating, scale 0-100) ([7]; 63 g ai/ha): 80
Pre-emerge Herbicidal Activity DIGSA (phytotoxicity rating, scale 0-100) ([7]; 250 g ai/ha): 100
Pre-emerge Herbicidal Activity CASOB (phytotoxicity rating, scale 0-100) ([8]; 63 g ai/ha): 20
Pre-emerge Herbicidal Activity CASOB (phytotoxicity rating, scale 0-100) ([8]; 250 g ai/ha): 90
Pre-emerge Herbicidal Activity ABUTH (phytotoxicity rating, scale 0-100) ([9]; 63 g ai/ha): 100
Pre-emerge Herbicidal Activity ABUTH (phytotoxicity rating, scale 0-100) ([9]; 250 g ai/ha): 100
Pre-emerge crop damage CORN (phytotoxicity rating, scale 0-100) ([10]; 63 g ai/ha): 10
Pre-emerge crop damage CORN (phytotoxicity rating, scale 0-100) ([10]; 250 g ai/ha): 90
Pre-emerge crop damage RICE (phytotoxicity rating, scale 0-100) ([11]; 63 g ai/ha): 80
Pre-emerge crop damage RICE (phytotoxicity rating, scale 0-100) ([11]; 250 g ai/ha): 95
Post-emerge Herbicidal Activity ECHCG ([12]; 63 g ai/ha): 0
Post-emerge Herbicidal Activity ECHCG ([12]; 250 g ai/ha): 30
Post-emerge Herbicidal Activity AMBEL ([13]; 63 g ai/ha): 0
Post-emerge Herbicidal Activity AMBEL ([13]; 250 g ai/ha): 50
Post-emerge Herbicidal Activity SETVI ([14]; 63 g ai/ha): 0
Post-emerge Herbicidal Activity SETVI ([14]; 250 g ai/ha): 20
Post-emerge Herbicidal Activity IPOHE ([15]; 63 g ai/ha): 95
Post-emerge Herbicidal Activity IPOHE ([15]; 250 g ai/ha): 90
Post-emerge Herbicidal Activity SORHA ([16]; 63 g ai/ha): 0
Post-emerge Herbicidal Activity SORHA ([16]; 250 g ai/ha): 0
Post-emerge Herbicidal Activity CHEAL ([17]; 63 g ai/ha): 20
Post-emerge Herbicidal Activity CHEAL ([17]; 250 g ai/ha): 50
Post-emerge Herbicidal Activity DIGSA ([18]; 63 g ai/ha): 0
Post-emerge Herbicidal Activity DIGSA ([18]; 250 g ai/ha): 0
Post-emerge Herbicidal Activity AMARE ([19]; 63 g ai/ha): 10
Post-emerge Herbicidal Activity AMARE ([19]; 250 g ai/ha): 10
Post-emerge Herbicidal Activity CASOB ([20]; 63 g ai/ha): 0
Post-emerge Herbicidal Activity CASOB ([20]; 250 g ai/ha): 0
Post-emerge Herbicidal Activity ABUTH ([21]; 63 g ai/ha): 70
Post-emerge Herbicidal Activity ABUTH ([21]; 250 g ai/ha): 100
Post-emerge Herbicidal Activity CORN (crop damage) ([22]; 63 g ai/ha): 0
Post-emerge Herbicidal Activity CORN (crop damage) ([22]; 250 g ai/ha): 0
Post-emerge Herbicidal Activity RICE (crop damage) ([23]; 63 g ai/ha): 10
Post-emerge Herbicidal Activity RICE (crop damage) ([23]; 250 g ai/ha): 40
